Organism: Rattus norvegicus
Test: DrugMatrix - Regimen: Daily Repeat
Type: toxicity, organism-based, Sprague-Dawley
Parameters: regimen Daily Repeat, gender Male, age 6-8 weeks
Details: in vivo, po, route oral GAVAGE, vehicle .5 % CMC; for ABSOLUTE BASOPHIL / ABSOLUTE EOSINOPHIL / ABSOLUTE LYMPHOCYTE / ABSOLUTE MONOCYTE / ABSOLUTE SEGMENTED NEUTROPHIL / BASOPHIL / EOSINOPHIL / ERYTHROCYTE COUNT / HEMATOCRIT / HEMOGLOBIN / LEUKOCYTE COUNT / LYMPHOCYTE / MEAN CORPUSCULAR HEMOGLOBIN / MEAN CORPUSCULAR HEMOGLOBIN CONCENTRATION / MEAN CORPUSCULAR VOLUME / MONOCYTE / NEUTROPHIL / NUCLEATED RED BLOOD CELLS / PLATELET COUNT: tissue Blood; for ALANINE AMINOTRANSFERASE / ALBUMIN / ALKALINE PHOSPHATASE / ASPARTATE AMINOTRANSFERASE / BLOOD UREA NITROGEN / CARBON DIOXIDE / CHLORIDE / CHOLESTEROL / CREATINE PHOSPHOKINASE / CREATININE / GLUCOSE / LACTATE DEHYDROGENASE / LIPASE / PHOSPHORUS / POTASSIUM / SODIUM / TOTAL BILIRUBIN / TOTAL PROTEIN / URIC ACID: tissue Plasma
[1] = 100 mg/kg, 120 h, dose level Low, time 5 day
[2] = 1503 mg/kg, 72 h, dose level High, time 3 day
[3] = 1503 mg/kg, 120 h, dose level High, time 5 day

Cl.NC[C@H]1CC[C@H](C(=O)Oc2ccc(CCC(=O)O)cc2)CC1 [CETRAXATE HYDROCHLORIDE]
ABSOLUTE BASOPHIL [1]: 0 CELLS/uL
ABSOLUTE EOSINOPHIL [1]: 157.33 CELLS/uL
ABSOLUTE LYMPHOCYTE [1]: 16804.67 CELLS/uL
ABSOLUTE MONOCYTE [1]: 401.67 CELLS/uL
ABSOLUTE SEGMENTED NEUTROPHIL [1]: 1803 CELLS/uL
BASOPHIL [1]: 0%
EOSINOPHIL [1]: 0.67%
ERYTHROCYTE COUNT [1]: 5.83 x10E6/uL
HEMATOCRIT [1]: 37.17%
HEMOGLOBIN [1]: 13.9 G/DL
LEUKOCYTE COUNT [1]: 19.17 x10E3/uL
LYMPHOCYTE [1]: 88.33%
MEAN CORPUSCULAR HEMOGLOBIN [1]: 23.87 pg
MEAN CORPUSCULAR HEMOGLOBIN CONCENTRATION [1]: 37.4 G/DL
MEAN CORPUSCULAR VOLUME [1]: 63.73 fL
MONOCYTE [1]: 2%
NEUTROPHIL [1]: 9%
NUCLEATED RED BLOOD CELLS [1]: 0 /100WBC
PLATELET COUNT [1]: 1287.67 x10E3/uL
ALANINE AMINOTRANSFERASE [1]: 53.67 u/L
ALBUMIN [1]: 4.23 G/DL
ALKALINE PHOSPHATASE [1]: 376.33 u/L
ASPARTATE AMINOTRANSFERASE [1]: 93.67 u/L
BLOOD UREA NITROGEN [1]: 19.33 mg/dL
CARBON DIOXIDE [1]: 27 mmol/L
CHLORIDE [1]: 104.67 MEQ/L
CHOLESTEROL [1]: 78.67 mg/dL
CREATINE PHOSPHOKINASE [1]: 449.67 u/L
CREATININE [1]: 0.23 mg/dL
GLUCOSE [1]: 160.33 mg/dL
LACTATE DEHYDROGENASE [1]: 370.33 u/L
LIPASE [1]: 9.67 u/L
PHOSPHORUS [1]: 13.2 mg/dL
POTASSIUM [1]: 6.82 MEQ/L
SODIUM [1]: 143.93 MEQ/L
TOTAL BILIRUBIN [1]: 0.17 mg/dL
TOTAL PROTEIN [1]: 5.97 G/DL
URIC ACID [1]: 2.07 mg/dL
ABSOLUTE BASOPHIL [2]: 0 CELLS/uL
ABSOLUTE EOSINOPHIL [2]: 121 CELLS/uL
ABSOLUTE LYMPHOCYTE [2]: 13133.33 CELLS/uL
ABSOLUTE MONOCYTE [2]: 333 CELLS/uL
ABSOLUTE SEGMENTED NEUTROPHIL [2]: 979.33 CELLS/uL
BASOPHIL [2]: 0%
EOSINOPHIL [2]: 1%
ERYTHROCYTE COUNT [2]: 5.73 x10E6/uL
HEMATOCRIT [2]: 36.13%
HEMOGLOBIN [2]: 13.17 G/DL
LEUKOCYTE COUNT [2]: 14.57 x10E3/uL
LYMPHOCYTE [2]: 90%
MEAN CORPUSCULAR HEMOGLOBIN [2]: 23.03 pg
MEAN CORPUSCULAR HEMOGLOBIN CONCENTRATION [2]: 36.43 G/DL
MEAN CORPUSCULAR VOLUME [2]: 63.13 fL
MONOCYTE [2]: 2.33%
NEUTROPHIL [2]: 6.67%
NUCLEATED RED BLOOD CELLS [2]: 0.33 /100WBC
PLATELET COUNT [2]: 1198.67 x10E3/uL
ALANINE AMINOTRANSFERASE [2]: 68 u/L
ALBUMIN [2]: 4.1 G/DL
ALKALINE PHOSPHATASE [2]: 375.67 u/L
ASPARTATE AMINOTRANSFERASE [2]: 167.67 u/L
BLOOD UREA NITROGEN [2]: 17.67 mg/dL
CARBON DIOXIDE [2]: 25 mmol/L
CHLORIDE [2]: 101.33 MEQ/L
CHOLESTEROL [2]: 63.67 mg/dL
CREATINE PHOSPHOKINASE [2]: 4593 u/L
CREATININE [2]: 0.28 mg/dL
GLUCOSE [2]: 200 mg/dL
LACTATE DEHYDROGENASE [2]: 387 u/L
LIPASE [2]: 10.33 u/L
PHOSPHORUS [2]: 12.87 mg/dL
POTASSIUM [2]: 6.87 MEQ/L
SODIUM [2]: 143.37 MEQ/L
TOTAL BILIRUBIN [2]: 0.3 mg/dL
TOTAL PROTEIN [2]: 5.53 G/DL
URIC ACID [2]: 2.37 mg/dL
ABSOLUTE BASOPHIL [3]: 0 CELLS/uL
ABSOLUTE EOSINOPHIL [3]: 225.33 CELLS/uL
ABSOLUTE LYMPHOCYTE [3]: 13517.67 CELLS/uL
ABSOLUTE MONOCYTE [3]: 404.33 CELLS/uL
ABSOLUTE SEGMENTED NEUTROPHIL [3]: 1186 CELLS/uL
BASOPHIL [3]: 0%
EOSINOPHIL [3]: 1.33%
ERYTHROCYTE COUNT [3]: 6.38 x10E6/uL
HEMATOCRIT [3]: 39.27%
HEMOGLOBIN [3]: 14.57 G/DL
LEUKOCYTE COUNT [3]: 15.33 x10E3/uL
LYMPHOCYTE [3]: 88.33%
MEAN CORPUSCULAR HEMOGLOBIN [3]: 22.83 pg
MEAN CORPUSCULAR HEMOGLOBIN CONCENTRATION [3]: 37.13 G/DL
MEAN CORPUSCULAR VOLUME [3]: 61.57 fL
MONOCYTE [3]: 2.67%
NEUTROPHIL [3]: 7.67%
NUCLEATED RED BLOOD CELLS [3]: 0 /100WBC
PLATELET COUNT [3]: 1170.67 x10E3/uL
ALANINE AMINOTRANSFERASE [3]: 59 u/L
ALBUMIN [3]: 4.47 G/DL
ALKALINE PHOSPHATASE [3]: 424.33 u/L
ASPARTATE AMINOTRANSFERASE [3]: 93.33 u/L
BLOOD UREA NITROGEN [3]: 17 mg/dL
CARBON DIOXIDE [3]: 26.67 mmol/L
CHLORIDE [3]: 105.67 MEQ/L
CHOLESTEROL [3]: 58 mg/dL
CREATINE PHOSPHOKINASE [3]: 497 u/L
CREATININE [3]: 0.24 mg/dL
GLUCOSE [3]: 175.33 mg/dL
LACTATE DEHYDROGENASE [3]: 205.33 u/L
LIPASE [3]: 9 u/L
PHOSPHORUS [3]: 12.87 mg/dL
POTASSIUM [3]: 6.66 MEQ/L
SODIUM [3]: 144.8 MEQ/L
TOTAL BILIRUBIN [3]: 0.2 mg/dL
TOTAL PROTEIN [3]: 6.27 G/DL
URIC ACID [3]: 1.93 mg/dL
